Reference: US6815195B2, “5-substituted hydantoin racemase, DNA coding for the racemase, and processes for producing optically active amino acids” (Ajinomoto Co. Inc., priority 2000, dated 2004)
Entries after “also recorded” stand apart in the source; their conditions may differ.

Key:
HRase [1] = test: Racemization of optically active 5-substituted hydantoin compounds other than BH (D-amino acid formation with AJ 11220 and HRase, TLC); assay type: biochemical, Microbacterium liquefaciens AJ3912; details: 1 g/dl substrate, 1.3 μg/ml purified HRase, 2 g/dl wet AJ 11220, 37° C., 22 hours, optical resolution TLC
Procedure: The ability of the present HRase to catalyze racemization of optically active 5-substituted hydantoin compounds other than BH was examined. The formation of D-amino acid from L-5-substituted hydantoin by a combination of Pseudomonas sp. AJ 11220 and HRase was confirmed in the same manner as in Example 8.
1 g/dl 5-substituted hydantoin of various kinds, together with 1.3 μg/ml purified HRase, 0.1 M KPB (pH 8.0), 0.5 mM CoCl2 and 2 g/dl wet AJ 11220, was subjected to stationary reaction at 37° C. for 22 hours. Each hydantoin consisted of D- and L-isomers as the substrate, and it was confirmed that D-amino acid was formed from the D-isomer substrate in the absence of HRase, and also that D-amino acid was not formed from the L-isomer substrate in the absence of HRase, and then it was judged that when D-amino acid was formed from the L-isomer substrate in the presence of HRase, the substrate was recognized. The formation of D-amino acid was qualitatively estimated by development with optical resolution TLC (MERCK, HPTLC CHIR) with methanol:H2O:acetonitrile=1:1:4.

HRase [2] = test: Racemization of BH by purified HRase (substrate recognition); assay type: biochemical, Microbacterium liquefaciens AJ3912; details: 0.3 mg/ml purified HRase, 37° C., pH 8.0
Procedure: (§1) A reaction solution containing 0.3 mg/ml purified HRase, 0.12 g/dl D- or L-BH, 50 mM KPB (pH 8.0) and 5 mM DTT was incubated at 37° C. and sampled with time to quantify the amount of BH by HPLC. As the control, the same experiment was performed in an experimental group not containing the enzyme, to quantify the spontaneous racemization of BH.

HRase [3] = test: Effect of various reagents such as enzyme inhibitors on HRase activity (residual activity); assay type: biochemical, Microbacterium liquefaciens AJ3912; details: for effect of reagent on HRase activity (in words): purified HRase pre-incubated with reagent; for Residual Activity (%): relative to activity without reagent (100%), pre-incubation 0° C. 30 min pH 8.0, reaction pH 8.0, 30° C., 30 min, concentration in reaction: NEM 5 mM, CuSO4 2.5 mM, IAA 10 mM, EDTA 10 mM, Methanol 10% (v/v)
Procedure: (§2) Specifically, a reaction solution containing 120 mg/dl L- or D-benzyl hydantoin (BH), 50 mM dibasic potassium phosphate buffer (KPB) (pH 8.0), 5 mM dithiothreitol (DTT) and an HRase enzyme solution was incubated at 37° C. for 30 minutes, and the reaction was stopped by adding a 9-fold excess volume of 1.1 mM CuSO4 and 11.1 mM H3PO4 solution. The precipitates were removed by centrifugation at 20,000 g×10 minutes, and the amount of racemized BH was quantitatively determined by HPLC to estimate the racemization activity. The enzyme activity causing racemization of 1 μmol BH per minute under these conditions was defined as 1 U of the enzyme activity.
1.5 μg/ml purified HRase was pre-incubated at 0° C. for 30 minutes at pH 8.0 with 25 mM DTT, 25 mM N-ethylmaleimide (NEM), 12.5 mM CuSO4, 50 mM monoiodoacetic acid (IAA), 50 mM EDTA or 50% (v/v) methanol. As the enzyme source, each of these mixtures was reacted at pH 8.0, at 30° C. for 30 minutes to measure the residual activity, and the susceptibility of the HRase to each inhibitor was determined. The concentration of each of the enzyme and the inhibitor during the reaction was about ⅕ relative to the concentration during the pre-incubation.
The residual activity was shown as relative activity to the activity (100%) in the absence of the reagent (see Table 2).

[4] = HRase activity measurement: racemization of BH quantified by HPLC (specific activity of purified HRase); assay type: biochemical, Microbacterium liquefaciens AJ3912
Procedure: Measurement of the HRase activity of the HRase of the present invention can be carried out by measuring a change in the optical rotation as the degree of racemization of the optically active D- or L-5-substituted hydantoin compound as the substrate or by high performance liquid chromatography (HPLC) using an optical resolution column.
as §2
The quantitative analysis of optically active BH by analysis in HPLC was conducted by use of Daicel Chemical CHIRALPAK WH 0.46 cmφ×25 cm. The analysis conditions are as follows:
as §1

[5] = Production of D-Phe from DL-BH or L-BH by a combination of Agrobacterium sp. AJ11220 and HRase; assay type: biochemical; details: reaction 30 hours
Procedure: 0.5 g/dl (26 mM) DL-BH or L-BH, together with 0.84 μg/ml purified HRase, 0.1 M KPB (pH 8.0), 0.5 mM CoCl2 and 2 g/dl wet AJ11220 microorganism, was subjected to stationary reaction at 30° C. Oxygen was previously removed from the reaction solution by replacing it by nitrogen. The reaction solution was sampled with time and analyzed by HPLC to quantify the formed D-Phe.

[6] = calculated from initial reaction rate, 37° C., pH 8.0, 5 mM DTT

In the case of `O=C1NC(=O)[C@H](Cc2ccc(O)cc2)N1` [L-5-(p-hydroxybenzyl) hydantoin], the “racemization by HRase (D-amino acid formed from L-isomer substrate, qualitative)” value (“racemization by HRase” for short) (HRase [1]) is reported as “racemized”.

In the case of `O=C1NC(=O)[C@@H](Cc2ccccc2)N1` [D-BH, D-benzyl hydantoin], the “recognition as substrate by HRase” value (HRase [2]) is reported as “recognized”.

For `CO` [Methanol, methanol], the “effect of reagent on HRase activity (in words)” value (“effect of reagent” below) (HRase [3]) was “did not influence” and the “Residual Activity (%)” value (HRase [3]) was 99%.

For `CCN1C(=O)C=CC1=O` [NEM, N-ethylmaleimide], the “effect of reagent” value (HRase [3]) was “significantly inhibited; also recorded: strongly inhibited” and the “Residual Activity (%)” value (HRase [3]) was 0%.

For `O[C@H](CS)[C@H](O)CS` (racemic) [DTT, dithiothreitol], the “effect of reagent” value (HRase [3]) was “activated”.

For `O=C(O)CN(CCN(CC(=O)O)CC(=O)O)CC(=O)O` [EDTA, ethylenediaminetetraacetic acid], the “effect of reagent” value (HRase [3]) was “no significant inhibitory effect; also recorded: minimally inhibited” and the “Residual Activity (%)” value (HRase [3]) was 86%.

With `CC(C)C[C@@H]1NC(=O)NC1=O` [L-5-isobutyl hydantoin] the “racemization by HRase” value (HRase [1]) was “racemized”.

For `O=C1NC(=O)[C@H](Cc2ccccc2)N1` [L-BH, L-benzyl hydantoin], the “recognition as substrate by HRase” value (HRase [2]) was “recognized”.

In the case of `O=S(=O)([O-])[O-].[Cu+2]` [CuSO4], the “effect of reagent” value (HRase [3]; listed as Cu^2+) is reported as “significantly inhibited”, the “effect of reagent” value (HRase [3]; listed as copper ion) is reported as “strongly inhibited” and the “Residual Activity (%)” value (HRase [3]) is reported as 0%.

For `O=C1NC(=O)[C@H](Cc2c[nH]c3ccccc23)N1` [L-5-indolyl methyl hydantoin], the “racemization by HRase” value (HRase [1]) was “racemized”.

In the case of `O=C(O)CI` [IAA, monoiodoacetic acid], the “effect of reagent” value (HRase [3]) is reported as “strongly inhibited”, the “effect of reagent” value (HRase [3]; listed as iodoacetic acid) is reported as “significantly inhibited” and the “Residual Activity (%)” value (HRase [3]) is reported as 0%.

B1: HRase: 5-substituted hydantoin racemase from Microbacterium liquefaciens AJ3912, amino acid sequence SEQ ID NO:2 (protein)
chain: MRIHVINPNSSVDLTDAVAEAARSVVSPGTTITAVNPSKGPTVIEGSYDEVLATYHLVEEVRRAEREDRPDAYVIACFGDPGLDAVRELTDRPVVGIAEAAIQMTSFVAASFSIVSILPRVRKHLHELVHRAGATDRLASLKLPDLGVLAFHEDEAAAFETLRRVAGEAVREDGAESIVLGCAGMAGFARQLSEELGVPVIDAVEAACRVAESLVALGYRTSKANTYQAPTEKQYL
For B1, the “specific activity of the purified HRase” value ([4]; after purification (Example 1), 1 U = racemization of 1 μmol BH per minute) was 79 U/mg, the “specific activity of the purified HRase, formation of D-BH from L-BH” value [4, 6] was 100 U/mg and the “specific activity of the purified HRase, formation of L-BH from D-BH” value [4, 6] was 79 U/mg. The “amount of D-Phe formed from DL-BH” value ([5]; HRase added (0.84 μg/ml), 26 mM DL-BH, 2 g/dl wet AJ11220, 30° C.) was 24.6 mM, the “amount of D-Phe formed from L-BH” value ([5]; HRase added (0.84 μg/ml), 26 mM L-BH, 2 g/dl wet AJ11220, 30° C.) was 24.6 mM and the “molar yield of D-Phe from DL-BH” value ([5]; HRase added, 26 mM DL-BH) was 94%. The “molar yield of D-Phe from L-BH” value ([5]; HRase added, 26 mM L-BH) was 94%.
